According to publication PMC11061835, “Elucidating the Mechanism of Metabolism of Cannabichromene by Human Cytochrome P450s” (Journal of Natural Products, 2024):
Several values for one entry are separate records, joined by “and”; a condition that tells them apart may be missing. Identical values can stand only once.

Experiments:
[1] = In vivo metabolism of CBC, mouse blood plasma (LC-MS/MS); design: species or system mice
Procedure: CBC was dissolved in ethanol, and an aliquot was then mixed with Tween-80. Ethanol was removed by evaporation. The mixture was then reconstituted with PBS to a 6% final concentration of Tween-80. C 57BL/6J female mice, age 8–10 weeks, were injected with 20 mg/kg CBC or vehicle intravenously (IV, n = 3) via the tail vein or intraperitoneally (IP, n = 3). Blood samples were collected terminally by cardiac puncture into heparin-coated syringes at 0.5 and 2 h after CBC treatment and transferred into tubes. The tubes were then centrifuged, and plasma samples were removed and stored at −80 °C.
200 μL of blood plasma from each sample was taken into a glass tube, and 500 μL of extraction solvent (hexane:ethyl acetate 80:20 v/v) was added. The remaining extraction steps are similar to those used for CBC metabolite extraction from CYPs as mentioned earlier.
Samples were analyzed with the 5500 QTRAP LC/MS/MS system (Sciex, Framingham, MA) in the Metabolomics Lab of Roy J. Carver Biotechnology Center, University of Illinois at Urbana–Champaign. Software Analyst 1.7.1 was used for data acquisition and analysis. The 1200 series HPLC system (Agilent Technologies, Santa Clara, CA) includes a degasser, an autosampler, and a binary pump. The LC separation was performed on a Phenomenex Gemini C6-phenyl column (2 × 100 mm, 3 μm) with mobile phase A (0.1% formic acid in water) and mobile phase B (0.1% formic acid in acetonitrile). The flow rate was 0.2 mL/min. The linear gradient was as follows: 0–2 min, 95% A; 10 min, 50% A; 20–25 min, 0% A; 25.1–31 min, 95% A. The autosampler was set at 10 °C. The injection volume was 5 μL. Mass spectra were acquired under positive electrospray ionization (ESI) with the ion spray voltage of +5000 V. The source temperature was 400 °C. The curtain gas, ion source gas 1, and ion source gas 2 were 325, 65, and 55 psi, respectively. Multiple reaction monitoring (MRM) was used for quantitation: CBC m/z 315.1 → m/z 135.0; 1-acetoxy-6′,7′-dihydroxy-CBC (JM-I-73) m/z 349.1→ m/z 193.0; 1″-hydroxy-CBC (JM-I-66) m/z 331.1→ m/z 275.1; 6′,7′-epoxy-CBC (JM-I-27) m/z 331.1→ m/z 193.0; 7′,10′-ene-6′-hydroxy-CBC (JM-I-30) m/z 331.1→ m/z 193.0; 8′-hydroxy-CBC (JM-I-32) […]→ m/z 77.0. Internal standard EET-EA-d11 was monitored at m/z 375.2→ m/z 357.1.

[2] = target: T1, CYP2J2 with CPR (Homo sapiens, UniProt P51589); assay: NADPH activity assay, CYP2J2 with CPR; type: biochemical
T1 construct: His-tag; made in house; host or cells: E. coli DH-5α with pTGro7 plasmid (CYP)
T1 sequence (P51589 1-502): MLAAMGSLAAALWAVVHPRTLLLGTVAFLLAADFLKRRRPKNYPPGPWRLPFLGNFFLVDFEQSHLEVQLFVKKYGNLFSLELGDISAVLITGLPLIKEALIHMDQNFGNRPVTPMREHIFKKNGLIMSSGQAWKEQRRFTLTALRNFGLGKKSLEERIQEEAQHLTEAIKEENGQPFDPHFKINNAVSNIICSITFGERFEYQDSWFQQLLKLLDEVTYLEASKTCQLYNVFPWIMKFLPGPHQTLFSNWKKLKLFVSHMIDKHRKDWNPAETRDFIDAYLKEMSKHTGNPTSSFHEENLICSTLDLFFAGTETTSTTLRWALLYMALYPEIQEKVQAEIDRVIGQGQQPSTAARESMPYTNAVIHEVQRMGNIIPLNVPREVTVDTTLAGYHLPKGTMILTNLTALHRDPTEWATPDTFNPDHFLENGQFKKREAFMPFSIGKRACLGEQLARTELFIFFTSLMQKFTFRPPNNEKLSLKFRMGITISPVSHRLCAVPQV
T1 sequence (P16435 1-677 partner): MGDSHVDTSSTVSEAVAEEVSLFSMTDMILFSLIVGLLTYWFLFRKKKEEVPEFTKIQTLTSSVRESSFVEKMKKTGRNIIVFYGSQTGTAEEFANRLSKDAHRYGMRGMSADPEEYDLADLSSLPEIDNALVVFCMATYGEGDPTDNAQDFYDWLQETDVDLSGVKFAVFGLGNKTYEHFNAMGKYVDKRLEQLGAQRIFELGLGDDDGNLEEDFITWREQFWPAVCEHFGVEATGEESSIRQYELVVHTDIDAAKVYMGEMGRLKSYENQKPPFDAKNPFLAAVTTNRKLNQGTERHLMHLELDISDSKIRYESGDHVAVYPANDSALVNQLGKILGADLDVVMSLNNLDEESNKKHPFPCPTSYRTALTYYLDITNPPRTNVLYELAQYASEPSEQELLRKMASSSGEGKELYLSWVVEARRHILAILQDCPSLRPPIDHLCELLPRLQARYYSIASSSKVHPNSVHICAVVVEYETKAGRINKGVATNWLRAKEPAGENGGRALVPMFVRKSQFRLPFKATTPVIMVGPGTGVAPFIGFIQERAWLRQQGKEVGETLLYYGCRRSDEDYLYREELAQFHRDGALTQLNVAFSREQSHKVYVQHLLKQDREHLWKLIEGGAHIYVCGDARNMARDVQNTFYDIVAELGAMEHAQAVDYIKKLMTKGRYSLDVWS
Procedure: (§1) CYP-mediated NADPH oxidation was measured using kinetics mode in a Cary 300 UV–vis spectrometer (Agilent Technologies). 0.2 μM (final concentration) of CYP was taken in 0.1 M potassium phosphate buffer (pH 7.4) and incubated with 0.6 μM (final concentration) of CPR for 5 min with a reaction volume of 400 μL. The reaction was initiated with 200 μM of NADPH, and the absorption change was monitored over 10 min at 340 nm. The rate of NADPH consumption (or NADPH to NADP^+ conversion) was calculated by taking the molar extinction coefficient as 6.22 mM^–1 cm^–1 at 340 nm. To estimate the change in NADPH oxidation in the presence of CBC, both CYP and CPR were further incubated using CBC (final concentration 50 μM) for 5 min followed by measuring the change in absorbance at 340 nm as discussed earlier.

[3] = design: method as in PMID 28640062; conditions: patients who consumed a CBD oil, cited from earlier work
[4] = target: T2, CYP2C9 with CPR (Homo sapiens, UniProt P11712); assay: NADPH activity assay, CYP2C9 with CPR; type: biochemical; conditions: CYP2C9, CBC 50 μM vs substrate-free
T2 construct: His-tag; made in house; host or cells: E. coli DH-5α with pTGro7 plasmid (CYP)
Procedure: as §1

[5] = target: cannabinoid receptor 2 (CB2); design: method as in PMID 31368508; conditions: agonist; cited from earlier work

T2 sequence (P11712 whole entry, one chain of several): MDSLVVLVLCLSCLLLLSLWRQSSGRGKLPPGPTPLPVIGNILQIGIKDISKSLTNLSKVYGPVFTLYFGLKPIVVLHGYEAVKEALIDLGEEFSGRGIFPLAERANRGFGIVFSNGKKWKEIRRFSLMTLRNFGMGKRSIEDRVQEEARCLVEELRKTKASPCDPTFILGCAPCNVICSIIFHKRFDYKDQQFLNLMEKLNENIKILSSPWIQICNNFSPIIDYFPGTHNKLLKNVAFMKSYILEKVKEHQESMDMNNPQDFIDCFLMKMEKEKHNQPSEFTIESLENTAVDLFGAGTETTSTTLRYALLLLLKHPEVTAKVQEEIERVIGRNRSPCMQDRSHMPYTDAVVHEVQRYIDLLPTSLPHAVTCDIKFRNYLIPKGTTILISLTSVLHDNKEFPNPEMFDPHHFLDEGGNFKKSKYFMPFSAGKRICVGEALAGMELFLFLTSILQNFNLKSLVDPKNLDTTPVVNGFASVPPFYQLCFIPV

SMILES	detection as product of CBC metabolism in mouse plasma ([1]; mice, CBC 20 mg/kg IV or IP, plasma at 0.5 and 2 h)	detection in blood plasma after 2 h of CBC administration ([1]; mice, both IP and IV, 2 h)	plasma concentration relative to the 6′,7′-epoxy compound ([1]; mouse plasma 0.5 h after CBC 20 mg/kg, depending on mode of administration (IP or IV))	NADPH rate (CYP+CPR+CBC) ([2]; CYP2J2, CBC 50 μM)	percentage increase of NADPH consumption in the presence of CBC ([2]; CYP2J2, CBC 50 μM vs substrate-free) [%]	detectable level of CBC in plasma ([3]; plasma) [ng/mL]	detectable level of CBC in urine ([3]; urine) [ng/mL]	percentage increase of NADPH consumption in the presence of CBC [4] [%]	Ki [5] [nM]
CCCCCc1cc(O)c2c(c1)OC(C)(CC/C=C(\C)CO)C=C2 (stereo not drawn) [8′-hydroxy-CBC]	detected	not detected	4–8 times						
CCCCCc1cc(O)c2c(c1)OC(C)(CCC=C(C)C)C=C2 (stereo not drawn) [CBC, Cannabichromene]				21.7 nmol/min/nmol and ~20 nmol/min/nmol	~60	~60	~94	~90	~100
